The target of one assay is T1, PAR1 thrombin receptor (Homo sapiens, UniProt P25116).
T1 construct: homogenized with a Dounce homogenizer, and then centrifuged at 40,000 g for 60 minutes to yield platelet membrane; from tissue; host or cells: platelet membrane prepared from the blood of a healthy adult donor
T1 sequence (P25116 22-425): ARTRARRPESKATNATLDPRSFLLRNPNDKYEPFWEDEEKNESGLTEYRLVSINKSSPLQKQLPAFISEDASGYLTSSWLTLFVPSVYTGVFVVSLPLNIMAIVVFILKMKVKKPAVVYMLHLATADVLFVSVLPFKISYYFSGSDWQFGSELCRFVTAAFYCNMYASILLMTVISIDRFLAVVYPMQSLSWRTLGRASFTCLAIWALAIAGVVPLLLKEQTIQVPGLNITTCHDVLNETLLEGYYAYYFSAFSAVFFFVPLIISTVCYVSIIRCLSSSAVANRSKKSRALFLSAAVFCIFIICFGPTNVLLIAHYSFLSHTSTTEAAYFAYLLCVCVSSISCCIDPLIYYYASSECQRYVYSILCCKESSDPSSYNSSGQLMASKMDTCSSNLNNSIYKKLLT
The assay is described as follows: Receptor binding assay (high affinity TRAP displacement, platelet membrane). Particulars: platelet membrane of healthy adult, [3H] high affinity TRAP, 37° C. 1 hour; read-out: RBA IC50. Here is the method: Blood was sampled from a healthy adult who had taken no drugs for one week, and 3.8% citric acid (a ratio of 1:9 with respect to the blood) was added as an anticoagulant. The mixture was then centrifuged at 100 g for 10 minutes at room temperature to yield platelet rich plasma (PRP). The platelet precipitate obtained by centrifuging the PRP was homogenized with a Dounce homogenizer, and then centrifuged at 40,000 g for 60 minutes to yield platelet membrane. The platelet membrane was suspended in a solution prepared by adding DMSO (dimethyl sulfoxide) at 1% concentration to Buffer 1: a 50 mM Tris-HCl buffer containing 10 mM MgCl2 and 1 mM EGTA (ethylene glycol tetraacetic acid), and the suspension was stored at −80° C. Bovine albumin and DMSO were added to Buffer 1 at 0.1% and 20%, respectively, to make a preparation solution for the test compound. […] Next, 30 μl of liquid scintillator was added for measurement of the radioactivity of the plate using a Top Counter (Packard), the value of the radioactivity in the presence of the test compound minus non-specific binding portion was divided by the specific binding value (the value of the binding in the absence of the compound minus the non-specific binding portion) to determine the binding ratio, from which the IC50 value was calculated. […]

For assay [1], the system named is platelet rich plasma (PRP), thrombin-induced platelet aggregation. The assay is described as follows: Inhibitory effects on platelet aggregation using platelet rich plasma (thrombin-induced). Particulars: Homo sapiens, PRP of healthy adult, thrombin 0.5-1.5 units/ml, area under aggregation curve, read-out: Thr IC50. The class given is cell-based. Here is the method:
[Inhibitory Effects on Platelet Aggregation using Platelet Rich Plasma]
Blood was sampled from a healthy adult who had taken no drugs for one week, and 3.8% citric acid (a ratio of 1:9 with respect to the blood) was added as an anticoagulant. The mixture was then centrifuged at 100 g for 10 minutes at room temperature to yield platelet rich plasma (PRP). The PRP-removed blood was further centrifuged at 1000 g for 10 minutes to yield platelet poor plasma (PPP). The number of platelet was counted using a multi-parameter automatic hemocyte counter (K4500, Sysmex), and the PRP was diluted to approximately 300,000/μl with the PPP. The platelet aggregation activity was determined in the following manner using an Aggregometer (MC Medical). […] After addition of thrombin, the aggregation reaction was examined for 6 minutes and the areas under the aggregation curves were compared to determine the inhibition ratio, from which the IC50 value was calculated.

Where a name gives a salt, the structure may show the parent alone.

In the case of `CC(C)(C)c1cc(C(=O)Cn2c(=N)n(Cc3ccc(N)cc3)c3ccccc32)cc(C(C)(C)C)c1O` [Example 40, 2-[3-(4-amino-benzyl)-2-imino-2,3-di-hydro-benzimida-zol-1-yl]-1-(3,5-di-tert-bu-tyl-4-hydroxy-phenyl)-ethanone dihydrochloride], the IC50 (usually the concentration at which inhibition is half-maximal) at PAR1 thrombin receptor stood at 260 nM; in assay [1] it was 1300 nM.
